Reference: ChEMBL document CHEMBL1201862, “PubChem BioAssay data set” (2004)
Calls of active or inactive are those of the source.

Tests used:
[1] = target: Voltage-gated inwardly rectifying potassium channel KCNH2 (Homo sapiens, UniProt Q12809); assay: concentration-dependent hERG rescue from blockers – cell-based, thallium flux, dose response (AID 2121); type: ADME
[2] = target: Prothrombin (Homo sapiens, UniProt P00734); assay: Thrombin 1536 HTS Dose Response Confirmation. [Related pubchem assays: 1046 (Thrombin 1536 HTS; hits were confirmed in this assay)]; type: functional
[3] = Luminescence-based cell-based high throughput dose response assay to identify activators of the DAF-12 from the parasite S. stercoralis (ssDAF-12).; type: functional
[4] = cells
[5] = target: Major prion protein (Homo sapiens, UniProt P04156); type: functional, cell-based
[6] = target: T1, Corticotropin-releasing factor receptor 2/Corticotropin-releasing factor-binding protein (Homo sapiens, UniProt P24387+Q13324); assay: activators of CRF receptor 2 with binding protein – uHTS hits, confirmation (AID 602473); type: functional; conditions: read-out: EC50_Mean
T1 sequence (Q13324 whole entry): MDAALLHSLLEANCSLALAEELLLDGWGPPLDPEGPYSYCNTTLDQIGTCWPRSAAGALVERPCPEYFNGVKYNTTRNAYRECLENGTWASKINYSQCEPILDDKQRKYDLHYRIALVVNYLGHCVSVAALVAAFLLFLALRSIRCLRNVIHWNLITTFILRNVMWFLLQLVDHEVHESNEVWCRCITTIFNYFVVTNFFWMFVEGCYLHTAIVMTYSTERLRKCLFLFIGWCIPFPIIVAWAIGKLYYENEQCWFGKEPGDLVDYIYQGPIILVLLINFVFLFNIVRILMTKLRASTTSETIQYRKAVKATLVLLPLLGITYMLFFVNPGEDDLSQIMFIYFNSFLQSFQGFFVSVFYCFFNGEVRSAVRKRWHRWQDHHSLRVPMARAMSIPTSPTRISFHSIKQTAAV
T1 sequence (P24387 whole entry): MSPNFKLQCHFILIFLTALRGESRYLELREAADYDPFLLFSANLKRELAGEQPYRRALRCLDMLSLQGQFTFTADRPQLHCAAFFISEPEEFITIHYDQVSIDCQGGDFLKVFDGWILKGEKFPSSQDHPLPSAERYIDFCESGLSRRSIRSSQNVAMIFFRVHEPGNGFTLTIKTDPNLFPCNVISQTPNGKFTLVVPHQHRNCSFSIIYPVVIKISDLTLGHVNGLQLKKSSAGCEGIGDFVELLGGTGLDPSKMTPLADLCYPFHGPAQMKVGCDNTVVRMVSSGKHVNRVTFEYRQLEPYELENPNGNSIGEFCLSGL

[7] = blockers of CRF-binding protein–CRF-R2 complex – cell-based, uHTS hits, 384-well, dose response (AID 651639); type: functional, Homo sapiens; conditions: read-out: IC50_Mean
[8] = target: T1, Corticotropin-releasing factor receptor 2/Corticotropin-releasing factor-binding protein; assay: Dose Response confirmation of uHTS hits for small molecule antagonists of the CRF-binding protein and CRF-R2 receptor complex.; type: functional; conditions: read-out: IC50_Mean
[9] = toxicity to human HepG2 hepatoma cells – cell-based, plate reader, dry powder samples, cytotoxicity control, dose response (AID 1159569); type: functional;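 note: inhibitor potency with signal falling toward the positive control level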
[10] = growth inhibition of PfATP4-mutant resistant parasites – NITD609-resistant line, SYBR Green, dry powder, dose response (AID 1159571); type: functional, cell-based;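 note: parasites synchronized at ring stage by sorbitol before testing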
[11] = Dd2 malaria parasite growth inhibition potency – SYBR Green, dry powder samples, dose response (AID 1159566); type: functional, cell-based;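 note: potency for growth inhibition with lower SYBR green DNA signal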
[12] = growth inhibition of yeast DHODH-expressing 3D7 parasites – SYBR Green, dry powder samples, dose response (AID 1159570); type: functional, cell-based;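 note: parasite growth measured after 72 hours of compound exposure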
[13] = P. falciparum Dd2 growth inhibitors, dose response, SYBR Green, cherry-picked samples (AID 1159567); type: functional, cell-based
[14] = target: T2, Carboxy-terminal domain RNA polymerase II polypeptide A small phosphatase 1 (Homo sapiens, UniProt Q9GZU7); assay: CTDSP1 inhibitors, concentration-response, biochemical, absorbance readout, ultra-high-throughput screen actives (AID 540297); type: functional
T2 sequence (Q9GZU7 whole entry): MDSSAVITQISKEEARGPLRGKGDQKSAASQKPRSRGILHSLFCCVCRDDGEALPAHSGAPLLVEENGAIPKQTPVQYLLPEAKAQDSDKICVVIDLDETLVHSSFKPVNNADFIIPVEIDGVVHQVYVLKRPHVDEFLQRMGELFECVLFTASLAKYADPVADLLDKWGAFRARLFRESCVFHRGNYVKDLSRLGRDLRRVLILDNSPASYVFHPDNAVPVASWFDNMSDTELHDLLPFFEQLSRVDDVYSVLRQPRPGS

[15] = target: T3, Low molecular weight phosphotyrosine protein phosphatase (Homo sapiens, UniProt P24666); type: functional; conditions: read-out: IC50_Mean;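 note: Dose-response confirmation assay measuring inhibition of LMPTP enzyme activity by fluorescence intensity read-out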
T3 sequence (P24666 whole entry): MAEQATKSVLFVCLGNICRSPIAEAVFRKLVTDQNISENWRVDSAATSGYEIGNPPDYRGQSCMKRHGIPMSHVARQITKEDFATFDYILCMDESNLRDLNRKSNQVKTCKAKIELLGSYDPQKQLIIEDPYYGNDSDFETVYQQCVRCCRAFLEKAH

[16] = target: T4, Nuclear receptor subfamily 0 group B member 1 (Homo sapiens, UniProt P51843); assay: Luminescence-based cell-based high throughput dose response assay for inhibitors of the orphan nuclear receptor subfamily 0, group B, member 1 (DAX1; NR0B1). [Related pubchem assays (depositor defined):AID504766, AID504790]; type: functional
T4 sequence (P51843 whole entry): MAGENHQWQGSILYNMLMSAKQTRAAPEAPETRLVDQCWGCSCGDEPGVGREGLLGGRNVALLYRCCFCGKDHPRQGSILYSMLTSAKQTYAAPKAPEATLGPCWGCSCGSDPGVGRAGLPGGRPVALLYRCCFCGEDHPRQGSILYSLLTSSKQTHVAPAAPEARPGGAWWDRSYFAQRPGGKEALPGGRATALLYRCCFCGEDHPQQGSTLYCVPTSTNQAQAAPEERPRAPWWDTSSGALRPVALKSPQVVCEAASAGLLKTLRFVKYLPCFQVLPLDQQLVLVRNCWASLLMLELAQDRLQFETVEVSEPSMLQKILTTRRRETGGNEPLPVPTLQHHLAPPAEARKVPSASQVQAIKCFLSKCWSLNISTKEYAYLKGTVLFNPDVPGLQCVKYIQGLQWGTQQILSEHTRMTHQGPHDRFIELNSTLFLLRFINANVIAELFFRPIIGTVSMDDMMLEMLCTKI

[17] = system: HEK293; assay: cells; type: functional, cell-based; conditions: Homo sapiens
[18] = target: T5, Heat shock factor protein 1 (Mus musculus, UniProt P38532); assay: decrease of HSF1-responsive luciferase luminescence – cell-based, NIH3T3, dose retest, confirmation (AID 2382); type: functional;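 note: NIH3T3 fibroblasts with HSF1-driven luciferase reporter stressed by proteasome inhibitor MG132; luminescence from HSF1-driven luciferase expression after 8 hours of MG132 stress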
T5 sequence (P38532 whole entry): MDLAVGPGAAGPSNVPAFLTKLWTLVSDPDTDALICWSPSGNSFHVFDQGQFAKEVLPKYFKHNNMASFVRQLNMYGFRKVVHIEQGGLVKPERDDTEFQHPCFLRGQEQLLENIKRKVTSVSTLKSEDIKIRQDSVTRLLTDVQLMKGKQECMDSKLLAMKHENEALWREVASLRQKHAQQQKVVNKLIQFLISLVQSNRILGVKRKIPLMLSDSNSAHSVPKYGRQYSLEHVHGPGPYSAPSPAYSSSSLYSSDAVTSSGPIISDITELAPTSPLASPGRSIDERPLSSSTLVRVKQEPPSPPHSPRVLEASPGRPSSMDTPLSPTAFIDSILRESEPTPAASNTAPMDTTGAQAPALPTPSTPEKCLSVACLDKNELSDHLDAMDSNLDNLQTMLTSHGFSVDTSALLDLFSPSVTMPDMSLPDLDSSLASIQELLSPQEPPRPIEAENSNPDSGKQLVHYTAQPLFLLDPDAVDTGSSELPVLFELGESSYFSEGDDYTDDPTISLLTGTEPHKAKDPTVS

[19] = OVCAR8 cell viability loss – plate reader, dry powder samples, PAX8 project, dose response (AID 743197); type: functional, cell-based; conditions: OVCAR-8
[20] = A2780 cell killing – plate reader, dry powder samples, cytotoxicity control, dose response (AID 743046); type: functional, cell-based
[21] = OVCAR-3 cell viability loss – plate reader, dry powder samples, PAX8 inhibitor project, dose response (AID 743044); type: functional, cell-based
[22] = target: Paired box protein Pax-8 (Homo sapiens, UniProt Q06710); assay: PAX8 transcriptional activity inhibition in RMG-I – RMG-I cells, luciferase, cherry-pick, dose response (AID 687027); type: functional, cell-based;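 note: luciferase reporter driven by Pax8 target thyroperoxidase promoter measured by SteadyGlo luminescence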
[23] = target: NAD-dependent protein deacylase sirtuin-5, mitochondrial (Homo sapiens, UniProt Q9NXA8); assay: sirtuin-5 deacylation blockers, concentration series – biochemical, fluorescence imaging, cherry-pick, set 5, dose response (AID 720591);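 note: desuccinylation of succinyl peptide AMC substrate read as fluorescence after trypsin release; potency of inhibitors that lower fluorescence and may act on trypsin instead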
[24] = target: Protein Wnt-3a (Mus musculus, UniProt P27467); assay: antagonism of Wnt3a pathway luciferase reporter – Wnt-LIGHT cells, luminescence, selectivity assay for Gli-SUFU antagonist project, dose response (AID 651570); type: functional; conditions: read-out: IC50_Mean;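 note: Wnt-LIGHT reporter cells stimulated with conditioned medium from Wnt3a-producing cells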
[25] = HEK-293T viability loss after treatment – luminescence, T-cell screen hits, cytotoxicity control for TCR NF-kB inhibitor project, dose response (AID 489026); type: functional, cell-based;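 note: cells exposed to compound about 14 hours before the viability readout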

CN(C(=S)NC(=O)c1ccc(F)cc1)C1CCCCC1
EC50 [1]: 8.79 µM (active)

CCc1nnc(NC(=O)CCC(=O)N2CCCC2)s1
IC50 [2]: > 50 µM (not active)

Cc1cc2oc(C(=O)NCC(c3ccco3)N3CCCC3)c(C)c2cc1C (centres undefined)
IC50 [3]: > 67.6 µM (inactive)

Cc1cc(NC(=O)CSc2nc(O)c(C#N)c(-c3ccccc3)n2)no1
IC50 [4]: > 138 µM (inactive) | IC50 [5]: 7.14 µM (active)

CC(C)Sc1snnc1-c1ccccc1
EC50 [6]: > 53 µM (inactive) | IC50 [7]: > 20 µM (inactive) | IC50 [8]: < 0.368 µM (active)

O=C(NCc1ccccc1)C1=C[C@@H](c2coc3ccccc3c2=O)C[C@@H](OCCCCO)O1
IC50 [2]: > 50 µM (not active)

COc1ccc(NC(=O)c2c(F)cccc2F)cc1S(=O)(=O)Nc1ccc(Br)cc1
EC50 [6]: > 53 µM (inactive) | IC50 [7]: 18.9 µM (active) | IC50 [8]: 20 µM (active)

C[C@@H]1CN([C@H](C)CO)C(=O)c2ccccc2-c2ccccc2CO[C@H]1CN(C)C(=O)Nc1cccc(Cl)c1Cl
AC50 [9]: > 100 µM (inactive) | AC50 [10]: 1.65 µM (active) | AC50 [11]: 0.56 µM (active) | AC50 [12]: 0.466 µM (active) | AC50 [13]: 1.01 µM (active)

O=C(/C=C/c1cccc([N+](=O)[O-])c1)Nc1ccc(NC(=O)c2cccs2)cc1
IC50 [14]: 4.11 µM (active) | IC50 [15]: 27.3 µM (inactive)

CC1(C)Cc2c(sc3nc(C4CC4)n(N)c(=O)c23)CO1
IC50 [16]: > 67.6 µM (inactive) | IC50 [17]: > 67.6 µM (inactive) | EC50 [18]: > 195 µM (not active)

C[C@@H]1CN([C@@H](C)CO)C(=O)Cc2cc(NC(=O)NC3CCCCC3)ccc2O[C@H]1CN(C)Cc1ccc(-c2ccccc2)cc1
AC50 [19]: 34 µM (active) | AC50 [20]: 31.8 µM (active) | AC50 [21]: 49.5 µM (active) | AC50 [22]: 8.66 µM (active)

COc1ccc(NC(=O)N2CCCCN3[C@H](CO)[C@H](c4ccc(C#CCC(C)C)cc4)[C@@H]3C2)cc1
AC50 [9]: > 100 µM (inactive) | AC50 [10]: 0.264 µM (active) | AC50 [11]: 0.418 µM (active) | AC50 [12]: 0.209 µM (active) | AC50 [13]: 0.636 µM (active)

NNC(=O)CN1C(=O)Nc2ccc(Br)cc2C1c1ccccc1 (centres undefined)
IC50 [2]: > 50 µM (not active)

COc1ccc(C(=O)C2CCCN(Cc3c[nH]nc3-c3ccccc3)C2)cc1OC (centres undefined)
AC50 [23]: > 30 µM (inactive)

CC(C)c1cc(C(F)(F)F)nc(NNc2nc(C(C)C)cc(C(F)(F)F)n2)n1
EC50 [6]: > 53 µM (inactive) | IC50 [7]: > 20 µM (inactive) | IC50 [8]: 0.988 µM (active)

COC(=O)C1=C(c2cc3ccccc3o2)C[C@@H]2CC[C@H]1N2C(=O)N1CCC(C)CC1
IC50 [24]: 24.4 µM (inactive)

O=C1N2CCSC2=NC1(NS(=O)(=O)c1ccccc1)C(F)(F)F (centres undefined)
EC50 [1]: 2.27 µM (active)

COc1ccc(NC(=O)Nc2ccc3c(c2)C(=O)N([C@H](C)CO)C[C@@H](C)[C@@H](CN(C)C(=O)Cc2ccccc2)OCCCC[C@H](C)O3)cc1
AC50 [19]: > 70 µM (inactive) | AC50 [20]: 16.6 µM (active) | AC50 [22]: 30.9 µM (active)

CCOC(=O)N1CCN(C(=O)C2CCCN(S(=O)(=O)c3cc(C)ccc3OC)C2)CC1 (centres undefined)
IC50 [2]: > 50 µM (not active)

CCN1C(=O)C2(C(C(=O)c3cc4ccccc4o3)=C(O)C(=O)N2CCCN2CCOCC2)c2ccccc21 (centres undefined)
IC50 [4]: > 138 µM (inactive) | IC50 [5]: 2.08 µM (active)

COc1cc(C(=O)Nc2ccc3c(c2)ncn3C)cc(OC)c1OC
IC50 [25]: > 80 µM (inactive) | IC50 [4]: > 138 µM (inactive) | IC50 [5]: 6.23 µM (active)

CCCCOc1ccc(N2C(N)=NC(N)=NC23CCCCC3)cc1
IC50 [24]: 18.3 µM (active)

Cc1cccc(NC(=S)NC(=O)c2cc(-c3ccccc3)nc3ccccc23)c1
EC50 [1]: 0.53 µM (active)

CCc1c(C)nc2c(Br)cccc2c1SCCC#N
IC50 [4]: > 138 µM (inactive) | AC50 [23]: > 30 µM (inactive) | IC50 [5]: 2.52 µM (active)

Cc1cc(C2C(=O)c3ccccc3C2=O)c(C)c(C)c1C
AC50 [23]: > 30 µM (inactive)

CCOC(=O)c1c(C)[nH]c(C)c1C(=O)COC(=O)c1ccccc1O
AC50 [23]: 20 µM (active)
